Data: ChEMBL document CHEMBL3991601, “The target landscape of clinical kinase drugs” (Science, 2017)
Where a name gives a salt, the structure may show the parent alone. Calls of active or inactive are those of the source.

Assays:
[1] = molecular target: T1, Delta(24)-sterol reductase (Homo sapiens, UniProt Q15392)
T1 sequence (Q15392 whole entry): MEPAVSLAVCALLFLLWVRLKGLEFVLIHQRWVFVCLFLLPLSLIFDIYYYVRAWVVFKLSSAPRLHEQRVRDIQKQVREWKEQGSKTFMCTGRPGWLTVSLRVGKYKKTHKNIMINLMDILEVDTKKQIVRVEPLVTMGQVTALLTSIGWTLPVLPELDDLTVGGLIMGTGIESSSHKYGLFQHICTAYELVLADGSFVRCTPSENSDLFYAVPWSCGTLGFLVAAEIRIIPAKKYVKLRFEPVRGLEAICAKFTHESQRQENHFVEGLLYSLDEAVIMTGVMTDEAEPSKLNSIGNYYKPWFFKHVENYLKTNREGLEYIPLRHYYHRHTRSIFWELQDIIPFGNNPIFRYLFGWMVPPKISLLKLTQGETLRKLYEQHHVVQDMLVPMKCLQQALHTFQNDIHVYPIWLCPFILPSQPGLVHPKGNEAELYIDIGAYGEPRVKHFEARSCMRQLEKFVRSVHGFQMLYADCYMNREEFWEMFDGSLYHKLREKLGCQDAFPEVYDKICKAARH

[2] = molecular target: T2, Interleukin-1 receptor-associated kinase 3 (Homo sapiens, UniProt Q9Y616)
T2 sequence (Q9Y616 whole entry): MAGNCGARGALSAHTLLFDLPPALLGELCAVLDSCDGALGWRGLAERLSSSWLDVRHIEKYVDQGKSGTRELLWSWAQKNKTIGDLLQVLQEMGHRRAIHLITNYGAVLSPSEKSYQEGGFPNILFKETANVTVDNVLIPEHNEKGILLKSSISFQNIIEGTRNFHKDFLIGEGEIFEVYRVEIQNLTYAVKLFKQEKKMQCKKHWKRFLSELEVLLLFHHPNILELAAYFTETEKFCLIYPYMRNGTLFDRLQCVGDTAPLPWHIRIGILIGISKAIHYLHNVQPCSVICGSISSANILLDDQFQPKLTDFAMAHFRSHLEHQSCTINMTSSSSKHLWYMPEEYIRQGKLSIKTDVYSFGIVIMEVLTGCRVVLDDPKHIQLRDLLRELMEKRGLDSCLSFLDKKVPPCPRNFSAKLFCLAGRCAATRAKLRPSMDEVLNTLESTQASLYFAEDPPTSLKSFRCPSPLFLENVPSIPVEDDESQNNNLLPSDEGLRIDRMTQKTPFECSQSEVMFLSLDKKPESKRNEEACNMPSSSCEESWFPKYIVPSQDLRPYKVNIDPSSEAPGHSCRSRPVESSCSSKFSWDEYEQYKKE

[3] = molecular target: T3, Bifunctional phosphoribosylaminoimidazole carboxylase/phosphoribosylaminoimidazole succinocarboxamide synthetase (Homo sapiens, UniProt P22234)
T3 sequence (P22234 whole entry): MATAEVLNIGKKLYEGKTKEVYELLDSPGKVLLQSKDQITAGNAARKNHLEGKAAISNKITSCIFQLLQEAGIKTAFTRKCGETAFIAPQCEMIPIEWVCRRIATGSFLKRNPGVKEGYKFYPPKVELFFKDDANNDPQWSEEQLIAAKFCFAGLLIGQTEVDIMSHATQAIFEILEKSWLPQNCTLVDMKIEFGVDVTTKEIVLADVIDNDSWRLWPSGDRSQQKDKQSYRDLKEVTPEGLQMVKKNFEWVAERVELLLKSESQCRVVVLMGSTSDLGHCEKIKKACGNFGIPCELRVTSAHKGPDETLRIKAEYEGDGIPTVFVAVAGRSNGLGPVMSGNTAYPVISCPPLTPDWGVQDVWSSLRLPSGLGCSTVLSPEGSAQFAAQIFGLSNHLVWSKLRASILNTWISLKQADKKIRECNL

[4] = molecular target: Insulin-like growth factor 1 receptor (Homo sapiens, UniProt P08069)
[5] = molecular target: T4, Receptor-type tyrosine-protein kinase FLT3 (Homo sapiens, UniProt P36888)
T4 sequence (P36888 whole entry): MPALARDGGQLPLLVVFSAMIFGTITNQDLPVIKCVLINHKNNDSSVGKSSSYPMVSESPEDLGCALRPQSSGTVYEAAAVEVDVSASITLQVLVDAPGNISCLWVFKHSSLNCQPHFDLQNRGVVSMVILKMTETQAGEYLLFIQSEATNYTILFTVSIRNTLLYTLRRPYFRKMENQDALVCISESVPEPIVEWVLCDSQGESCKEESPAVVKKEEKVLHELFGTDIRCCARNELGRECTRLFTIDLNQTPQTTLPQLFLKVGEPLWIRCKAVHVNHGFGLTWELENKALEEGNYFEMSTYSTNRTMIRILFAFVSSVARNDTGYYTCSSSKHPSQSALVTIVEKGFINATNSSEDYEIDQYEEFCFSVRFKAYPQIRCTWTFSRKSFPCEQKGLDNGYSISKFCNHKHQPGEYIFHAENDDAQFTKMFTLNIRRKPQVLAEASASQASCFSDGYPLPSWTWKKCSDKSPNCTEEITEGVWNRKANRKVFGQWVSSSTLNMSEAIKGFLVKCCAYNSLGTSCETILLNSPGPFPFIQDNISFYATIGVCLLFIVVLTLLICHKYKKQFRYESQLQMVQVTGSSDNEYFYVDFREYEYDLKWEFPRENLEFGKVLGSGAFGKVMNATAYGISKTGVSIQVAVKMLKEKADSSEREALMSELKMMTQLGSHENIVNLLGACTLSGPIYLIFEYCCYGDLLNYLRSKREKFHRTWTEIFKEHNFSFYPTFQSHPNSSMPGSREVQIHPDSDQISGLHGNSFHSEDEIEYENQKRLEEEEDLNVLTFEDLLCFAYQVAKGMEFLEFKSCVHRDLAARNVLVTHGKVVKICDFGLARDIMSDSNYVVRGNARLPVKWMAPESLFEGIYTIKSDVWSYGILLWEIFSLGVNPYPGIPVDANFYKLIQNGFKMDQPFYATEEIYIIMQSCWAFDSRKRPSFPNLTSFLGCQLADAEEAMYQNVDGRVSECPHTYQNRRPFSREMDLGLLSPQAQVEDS

[6] = molecular target: Cyclin-dependent kinase 2 (Homo sapiens, UniProt P24941)
Also: in the data inactive means no Kd found up to 30 µM.

Insulin-like growth factor 1 receptor, sequence (P08069 31-736 limits assumed): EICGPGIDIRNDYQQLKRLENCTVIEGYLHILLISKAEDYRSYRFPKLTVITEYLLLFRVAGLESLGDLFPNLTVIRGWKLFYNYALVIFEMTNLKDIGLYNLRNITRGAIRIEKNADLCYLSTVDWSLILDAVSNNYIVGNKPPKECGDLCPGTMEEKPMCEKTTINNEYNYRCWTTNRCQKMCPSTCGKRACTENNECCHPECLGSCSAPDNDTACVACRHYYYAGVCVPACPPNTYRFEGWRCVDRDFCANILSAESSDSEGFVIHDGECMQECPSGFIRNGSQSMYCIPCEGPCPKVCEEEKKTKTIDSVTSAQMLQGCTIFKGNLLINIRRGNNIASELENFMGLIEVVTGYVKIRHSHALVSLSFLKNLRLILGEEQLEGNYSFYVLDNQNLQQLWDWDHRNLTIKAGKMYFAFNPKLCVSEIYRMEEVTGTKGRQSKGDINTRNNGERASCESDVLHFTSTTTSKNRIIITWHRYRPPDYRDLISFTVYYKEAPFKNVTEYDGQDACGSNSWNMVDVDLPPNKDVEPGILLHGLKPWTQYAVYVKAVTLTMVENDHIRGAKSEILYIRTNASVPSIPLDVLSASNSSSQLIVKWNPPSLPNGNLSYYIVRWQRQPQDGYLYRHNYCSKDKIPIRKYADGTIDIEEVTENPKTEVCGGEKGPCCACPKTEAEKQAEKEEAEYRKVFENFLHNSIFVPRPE
Insulin-like growth factor 1 receptor, sequence (P08069 741-1367 limits assumed): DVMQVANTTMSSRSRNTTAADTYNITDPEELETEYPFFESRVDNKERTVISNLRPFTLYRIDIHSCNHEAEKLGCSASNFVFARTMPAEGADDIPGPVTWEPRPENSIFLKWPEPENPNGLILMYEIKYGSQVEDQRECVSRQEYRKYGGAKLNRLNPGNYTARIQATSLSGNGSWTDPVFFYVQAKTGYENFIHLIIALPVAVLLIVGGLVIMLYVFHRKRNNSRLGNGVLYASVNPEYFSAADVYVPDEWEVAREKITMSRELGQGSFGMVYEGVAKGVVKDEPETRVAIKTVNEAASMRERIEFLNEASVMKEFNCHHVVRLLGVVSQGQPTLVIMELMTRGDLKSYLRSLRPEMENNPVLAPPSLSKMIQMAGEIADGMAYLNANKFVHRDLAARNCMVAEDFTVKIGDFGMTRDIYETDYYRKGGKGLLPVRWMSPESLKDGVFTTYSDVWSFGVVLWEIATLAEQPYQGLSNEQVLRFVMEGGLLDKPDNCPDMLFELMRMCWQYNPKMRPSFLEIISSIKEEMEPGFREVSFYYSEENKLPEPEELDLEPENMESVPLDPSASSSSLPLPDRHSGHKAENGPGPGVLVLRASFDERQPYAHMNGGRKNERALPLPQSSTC

Kd [1] | Kd [2] | Kd [3] | Kd [4] | Kd [5] | Compound | Kd [6]
> 30 µM (inactive) | > 30 µM (inactive) | > 30 µM (inactive) | – | – | COc1cc(Nc2ncc3c(n2)-c2ccc(Cl)cc2C(c2c(F)cccc2OC)=NC3)ccc1C(=O)O [ALISERTIB] | –
> 30 µM (inactive) | > 30 µM (inactive) | > 30 µM (inactive) | > 30 µM (inactive) | – | O=C(Nc1c[nH]nc1-c1nc2cc(CN3CCOCC3)ccc2[nH]1)NC1CC1 [AT-9283] | –
> 30 µM (inactive) | – | > 30 µM (inactive) | – | – | CNC(=O)c1ccccc1Sc1ccc2c(/C=C/c3ccccn3)n[nH]c2c1 [AXITINIB] | –
> 30 µM (inactive) | > 30 µM (inactive) | > 30 µM (inactive) | > 30 µM (inactive) | 1.5 µM (active) | CCS(=O)(=O)N1CCN(c2ccc(Nc3ncc(C(N)=O)c(NC4CC4)n3)cc2)CC1 [Cerdulatinib Hydrochloride] | –
> 30 µM (inactive) | > 30 µM (inactive) | > 30 µM (inactive) | > 30 µM (inactive) | > 30 µM (inactive) | Cc1nc2cc(-n3ncc(C(=O)c4cc5ccccc5[nH]4)c3N)ccc2[nH]1 [FGFR INHIBITOR DEBIO 1347] | –
> 30 µM (inactive) | – | > 30 µM (inactive) | – | – | C[C@@H](Oc1cc(-n2cnc3ccc(CN4CCN(C)CC4)cc32)sc1C(N)=O)c1ccccc1C(F)(F)F [GSK-461364] | –
> 30 µM (inactive) | > 30 µM (inactive) | > 30 µM (inactive) | > 30 µM (inactive) | – | CCn1cc(-c2ccnc3[nH]c(-c4cccc(CN(C)C)c4)cc23)c(-c2ccc(NC(=O)N(C)C)cc2)n1 [GSK-1070916] | > 30 µM (inactive)
> 30 µM (inactive) | > 30 µM (inactive) | > 30 µM (inactive) | > 30 µM (inactive) | > 30 µM (inactive) | CNC(=O)c1cccc2cc(Oc3ccnc4cc(OCC5(N)CC5)c(OC)cc34)ccc12 [LUCITANIB] | –
> 30 µM (inactive) | > 30 µM (inactive) | > 30 µM (inactive) | – | – | Cc1[nH]c(/C=C2\C(=O)Nc3ccccc32)c(C)c1CCC(=O)O [ORANTINIB] | –
> 30 µM (inactive) | > 30 µM (inactive) | > 30 µM (inactive) | – | – | NC(=O)c1c(OCc2c(F)cc(Br)cc2F)nsc1NC(=O)NCCCCN1CCCC1 [OSI-632] | –
> 30 µM (inactive) | > 30 µM (inactive) | > 30 µM (inactive) | > 30 µM (inactive) | 1.44 µM (active) | Cc1nc(Nc2n[nH]c3c2CN(C(=O)N[C@H](CN(C)C)c2ccccc2)C3(C)C)c2sccc2n1 [PF-03758309] | –
> 30 µM (inactive) | > 30 µM (inactive) | > 30 µM (inactive) | – | – | CC(=O)NCC(=O)N1[C@@H]2CC[C@H]1c1ccc(Nc3ncc(C(F)(F)F)c(NC4CCC4)n3)cc12 [PF-03814735] | –
> 30 µM (inactive) | – | > 30 µM (inactive) | – | – | O=C(NOCCO)c1cc(CN2OCCCC2=O)c(F)c(F)c1Nc1ccc(I)cc1F [RO-4987655] | –
> 30 µM (inactive) | – | > 30 µM (inactive) | – | – | N#CC[C@H](C1CCCC1)n1cc(-c2ncnc3[nH]ccc23)cn1 [RUXOLITINIB] | –
> 30 µM (inactive) | 0.027 µM (active) | > 30 µM (inactive) | > 30 µM (inactive) | 0.554 µM | CCS(=O)(=O)c1cccc(-c2cc(C(=O)NC3CCN(C)CC3)c(C)c3[nH]c4ncc(C)cc4c23)c1 [TAK-901] | –
> 30 µM (inactive) | > 30 µM (inactive) | > 30 µM (inactive) | > 30 µM (inactive) | > 30 µM (inactive) | C[C@@H](N)c1ccc(C(=O)Nc2ccnc3[nH]ccc23)cc1 [Y-39983] | –
> 30 µM (inactive) | 0.286 µM (active) | > 30 µM (inactive) | > 30 µM (inactive) | 0.418 µM | CN1C/C=C/CCOc2cccc(c2)-c2ccnc(n2)Nc2cccc(c2)C1 [ZOTIRACICLIB] | –

Compound | Kd [1] | Kd [2] | Kd [3] | Kd [4] | Kd [5] | Kd [6]
CC(C)(C)c1nc(-c2cccc(NS(=O)(=O)c3c(F)cccc3F)c2F)c(-c2ccnc(N)n2)s1 [DABRAFENIB] | > 30 µM (inactive) | > 30 µM (inactive) | > 30 µM (inactive) | – | – | 0.019 µM (active)
Cn1cc(C2=C(c3cn(C4CCN(Cc5ccccn5)CC4)c4ccccc34)C(=O)NC2=O)c2ccccc21 [ENZASTAURIN] | > 30 µM (inactive) | – | > 30 µM (inactive) | – | – | –
